Measurements from PubChem BioAssay AID2060498 (Molecular Pharmacology Branch, DTP, NCI, 2025).

Tested on: 171881-019-R-J1-PDC tumor spheroids, viability
Assay: Anticancer human tumor 171881-019-R-J1-PDC patient-derived invasive breast carcinoma cell line growth inhibition [GQUAD]
Conditions: spheroids with HUVEC and MSC; for IC50: curve of first compound; for viability, T/C: stronger effect = lower value; active = viability on the fitted dose curve at most 10% of control; inactive = the rest
How it was run: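 Viability of tumor cells grown as complex spheroids with endothelial and stromal cells, exposed to drug combinations. Top concentration at or near clinical Cmax (else 10 microM), diluted in half-log increments.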

[1] = second compound 0.0316 µM, first compound 0.0316 µM
[2] = second compound 0.0316 µM, first compound 0.1 µM
[3] = second compound 0.0316 µM, first compound 0.316 µM
[4] = second compound 0.0316 µM, first compound 1 µM
[5] = second compound 0.0316 µM, first compound 3.16 µM
[6] = second compound 0.0316 µM, first compound 10 µM
[7] = second compound 0.1 µM, first compound 0.0316 µM
[8] = second compound 0.1 µM, first compound 0.1 µM
[9] = second compound 0.1 µM, first compound 0.316 µM
[10] = second compound 0.1 µM, first compound 1 µM
[11] = second compound 0.1 µM, first compound 3.16 µM
[12] = second compound 0.1 µM, first compound 10 µM
[13] = second compound 0.316 µM, first compound 0.0316 µM
[14] = second compound 0.316 µM, first compound 0.1 µM
[15] = second compound 0.316 µM, first compound 0.316 µM
[16] = second compound 0.316 µM, first compound 1 µM
[17] = second compound 0.316 µM, first compound 3.16 µM
[18] = second compound 0.316 µM, first compound 10 µM
[19] = second compound 1 µM, first compound 0.0316 µM
[20] = second compound 1 µM, first compound 0.1 µM
[21] = second compound 1 µM, first compound 0.316 µM
[22] = second compound 1 µM, first compound 1 µM
[23] = second compound 1 µM, first compound 3.16 µM
[24] = second compound 1 µM, first compound 10 µM
[25] = second compound 3.16 µM, first compound 0.0316 µM
[26] = second compound 3.16 µM, first compound 0.1 µM
[27] = second compound 3.16 µM, first compound 0.316 µM
[28] = second compound 3.16 µM, first compound 1 µM
[29] = second compound 3.16 µM, first compound 3.16 µM
[30] = second compound 3.16 µM, first compound 10 µM
[31] = second compound 10 µM, first compound 0.0316 µM
[32] = second compound 10 µM, first compound 0.1 µM
[33] = second compound 10 µM, first compound 0.316 µM
[34] = second compound 10 µM, first compound 1 µM
[35] = second compound 10 µM, first compound 3.16 µM
[36] = second compound 10 µM, first compound 10 µM
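For viability, T/C in this document: 100% = DMSO vehicle control viability.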

CC1COCCN1c1cc(-c2ccnn2C)c2ccnc(-c3ccn[nH]3)c2n1 (stereo unspecified) + Cc1[nH]c2ccc(F)cc2c1-c1nc2c3cccnc3c3ncccc3c2[nH]1
inactive: viability, T/C [1] 80% | viability, T/C [2] 31.4% | viability, T/C [3] 14.5% | viability, T/C [7] 71.2% | viability, T/C [8] 35.2% | viability, T/C [9] 15.3% | viability, T/C [13] 74% | viability, T/C [14] 31% | viability, T/C [15] 16.2% | viability, T/C [19] 59% | viability, T/C [20] 24.8% | viability, T/C [21] 14.6% | viability, T/C [25] 16.6% | viability, T/C [26] 12.9% | viability, T/C [31] 18% | viability, T/C [32] 16.2% | viability, T/C [33] 11.8%
62.3 nM: IC50 (second compound 0.1 µM)
64.8 nM: IC50 (second compound 0.0316 µM)
60.6 nM: IC50 (second compound 0.316 µM)
active: viability, T/C [4] 8.57% | viability, T/C [5] 5.08% | viability, T/C [6] 5.43% | viability, T/C [10] 8.2% | viability, T/C [11] 5.64% | viability, T/C [12] 5.65% | viability, T/C [16] 7.52% | viability, T/C [17] 5.84% | viability, T/C [18] 5.85% | viability, T/C [22] 9.37% | viability, T/C [23] 6.91% | viability, T/C [24] 6.37% | viability, T/C [27] 10.5% | viability, T/C [28] 6.96% | viability, T/C [29] 5.31% | viability, T/C [30] 4.34% | viability, T/C [34] 8.67% | viability, T/C [35] 5.67% | viability, T/C [36] 5.17%
42.6 nM: IC50 (second compound 1 µM)
< 31.6 nM: IC50 (second compound 3.16 µM) | IC50 (second compound 10 µM)

Nc1ccn(C2OC(CO)C(O)C2(F)F)c(=O)n1 (stereo unspecified) + Cc1[nH]c2ccc(F)cc2c1-c1nc2c3cccnc3c3ncccc3c2[nH]1
< 31.6 nM: IC50 (second compound 0.0316 µM) | IC50 (second compound 0.1 µM) | IC50 (second compound 0.316 µM) | IC50 (second compound 1 µM) | IC50 (second compound 3.16 µM) | IC50 (second compound 10 µM)
inactive: viability, T/C [1] 25.9% | viability, T/C [2] 28.6% | viability, T/C [3] 39.9% | viability, T/C [4] 38.6% | viability, T/C [5] 36.5% | viability, T/C [6] 31.6% | viability, T/C [7] 25.8% | viability, T/C [8] 30.9% | viability, T/C [9] 38.6% | viability, T/C [10] 41.2% | viability, T/C [11] 35.9% | viability, T/C [12] 31.3% | viability, T/C [13] 26.7% | viability, T/C [14] 29.6% | viability, T/C [15] 35.7% | viability, T/C [16] 35.2% | viability, T/C [17] 38.6% | viability, T/C [18] 31.7% | viability, T/C [19] 26.7% | viability, T/C [20] 28.6% | viability, T/C [21] 38% | viability, T/C [22] 35.8% | viability, T/C [23] 39.1% | viability, T/C [24] 31.1% | viability, T/C [25] 18.5% | viability, T/C [26] 14% | viability, T/C [27] 19.1% | viability, T/C [28] 16.8% | viability, T/C [29] 19.9% | viability, T/C [30] 16.2% | viability, T/C [31] 20.3% | viability, T/C [32] 23.7% | viability, T/C [33] 27.2% | viability, T/C [34] 28.6% | viability, T/C [35] 26.6% | viability, T/C [36] 26.1%

Cc1[nH]c2ccccc2c1CCNCc1ccc(/C=C/C(=O)NO)cc1 + Cc1[nH]c2ccc(F)cc2c1-c1nc2c3cccnc3c3ncccc3c2[nH]1
32.5 nM: IC50 (second compound 1 µM)
64.8 nM: IC50 (second compound 0.1 µM)
< 0.999 nM: IC50 (second compound 3.16 µM) | IC50 (second compound 10 µM)
inactive: viability, T/C (second compound 0.0316 µM, first compound 0.000999 µM) 109% | viability, T/C (second compound 0.0316 µM, first compound 0.00316 µM) 107% | viability, T/C (second compound 0.0316 µM, first compound 0.00999 µM) 94.6% | viability, T/C [1] 84.6% | viability, T/C (second compound 0.0316 µM, first compound 0.0999 µM) 22.5% | viability, T/C (second compound 0.1 µM, first compound 0.000999 µM) 90.7% | viability, T/C (second compound 0.1 µM, first compound 0.00316 µM) 98.2% | viability, T/C (second compound 0.1 µM, first compound 0.00999 µM) 99.5% | viability, T/C [7] 91.7% | viability, T/C (second compound 0.1 µM, first compound 0.0999 µM) 24.8% | viability, T/C (second compound 0.316 µM, first compound 0.000999 µM) 91.7% | viability, T/C (second compound 0.316 µM, first compound 0.00316 µM) 72.2% | viability, T/C (second compound 0.316 µM, first compound 0.00999 µM) 85.5% | viability, T/C [13] 63.3% | viability, T/C (second compound 0.316 µM, first compound 0.0999 µM) 27% | viability, T/C (second compound 1 µM, first compound 0.000999 µM) 66.8% | viability, T/C (second compound 1 µM, first compound 0.00316 µM) 55.9% | viability, T/C (second compound 1 µM, first compound 0.00999 µM) 63.1% | viability, T/C [19] 50.3% | viability, T/C (second compound 1 µM, first compound 0.0999 µM) 20.4% | viability, T/C (second compound 3.16 µM, first compound 0.000999 µM) 9.69% | viability, T/C (second compound 10 µM, first compound 0.000999 µM) 43.6% | viability, T/C (second compound 10 µM, first compound 0.00316 µM) 46.2% | viability, T/C (second compound 10 µM, first compound 0.00999 µM) 41.6% | viability, T/C [31] 46.7% | viability, T/C (second compound 10 µM, first compound 0.0999 µM) 13.9%
active: viability, T/C [3] 0.66% | viability, T/C [9] 0.58% | viability, T/C [15] 0.34% | viability, T/C [21] 0.35% | viability, T/C (second compound 3.16 µM, first compound 0.00316 µM) 7.8% | viability, T/C (second compound 3.16 µM, first compound 0.00999 µM) 7.35% | viability, T/C [25] 5.79% | viability, T/C (second compound 3.16 µM, first compound 0.0999 µM) 1.55% | viability, T/C [27] 0.52% | viability, T/C [33] 0.41%
59.6 nM: IC50 (second compound 0.0316 µM)
49.1 nM: IC50 (second compound 0.316 µM)
